For the experiment, the system named is SARS-CoV-2. In words: microbe, parasite or virus in culture. Conditions: Severe acute respiratory syndrome coronavirus 2, Vero C1008, 48 h.

The results in this text go back to ChEMBL document CHEMBL4651402, “Screening of ~5500 FDA-approved drugs and clinical candidates for anti-SARS-CoV-2 activity” (2021).

Where only a bound is given, the exact number is not on record here.

`CC1CCC(C(C)C)C(=O)C1` (configuration not stated) came in with an IC50 of over 20 µM. Besides, the IC50 (read-out: pIC50 (converted)) is over 20 µM.

`C[C@]12C=CC(=O)C=C1CCC1C2C(O)C[C@@]2(C)C1CC[C@]2(O)C(=O)COC(=O)c1cccc(S(=O)(=O)O)c1` (some centres not stated) displayed an IC50 of over 20 µM. Moreover, the IC50 (read-out: pIC50 (converted)) is over 20 µM.

Regarding `CC(C)c1ccc2c(c1)CCC1C(C)(C(N)=O)CCCC21C` (configuration not stated), the IC50 was over 20 µM. The IC50 (read-out: pIC50 (converted)) was over 20 µM.

Compound `CC[C@H]1OC(=O)[C@H](C)[C@@H](O[C@H]2C[C@@](C)(OC)[C@@H](O)[C@H](C)O2)[C@H](C)[C@@H](O[C@@H]2O[C@H](C)C[C@H](N(C)C)[C@H]2O)[C@](C)(OC)C[C@@H](C)C(=O)[C@H](C)[C@@H](O)[C@]1(C)O` [CLARITHROMYCIN] came in with an IC50 of over 20 µM. Moreover, the IC50 (read-out: pIC50 (converted)) was over 20 µM.

Consider `CC1CC(OC(=O)C2CCC(=O)N2)CC(C)(C)C1` (configuration not stated), for which the IC50 is over 20 µM. In addition, the IC50 (read-out: pIC50 (converted)) is over 20 µM.

In turn, `NC(=O)CNC1Cc2ccccc2C1` showed an IC50 of over 20 µM. Also, the IC50 (read-out: pIC50 (converted)) is over 20 µM.

The compound `OC[C@H]1O[C@@H]2O[C@H]3[C@H](O)[C@@H](O)[C@@H](O[C@H]4[C@H](O)[C@@H](O)[C@@H](O[C@H]5[C@H](O)[C@@H](O)[C@@H](O[C@H]6[C@H](O)[C@@H](O)[C@@H](O[C@H]7[C@H](O)[C@@H](O)[C@@H](O[C@H]8[C@H](O)[C@@H](O)[C@@H](O[C@H]9[C@H](O)[C@@H](O)[C@@H](O[C@H]1[C@H](O)[C@H]2O)O[C@@H]9CO)O[C@@H]8CO)O[C@@H]7CO)O[C@@H]6CO)O[C@@H]5CO)O[C@@H]4CO)O[C@@H]3CO` [GAMMA-CYCLODEXTRIN] came in with an IC50 of over 20 µM. Further, the IC50 (read-out: pIC50 (converted)) was over 20 µM.

Regarding `O=C(O)c1cccnc1` [NIACIN], the IC50 is over 20 µM. Moreover, the IC50 (read-out: pIC50 (converted)) was over 20 µM.

As for `CC(=O)OCC(=O)[C@@]1(O)CCC2C3CCC4=CC(=O)CCC4(C)C3C(O)CC21C` (some centres not stated), the IC50 is over 20 µM. The IC50 (read-out: pIC50 (converted)) was over 20 µM.

In the case of `CC(C)c1nc(CN(C)C(=O)N[C@H](C(=O)N[C@@H](Cc2ccccc2)C[C@H](O)[C@H](Cc2ccccc2)NC(=O)OCc2cncs2)C(C)C)cs1` [RITONAVIR], the IC50 was over 50.1 µM. Also, the IC50 (read-out: pIC50 (converted)) was over 50.1 µM.

In turn, `COc1ccc(OC)c(C(O)C(C)NC(C)(C)C)c1` (configuration not stated) [BUTOXAMINE] registered an IC50 of over 20 µM. Moreover, the IC50 (read-out: pIC50 (converted)) was over 20 µM.

For the compound `CC(C)(C)NC(=O)[C@H]1CC[C@H]2[C@H]3CC[C@H]4NC(=O)C=C[C@]4(C)[C@H]3CC[C@]12C`, the IC50 was over 20 µM. Besides, under “read-out: pIC50 (converted)”, the IC50 is over 20 µM.

`CCN(CC)CCCCC(NC(=O)c1ccc([N+](=O)[O-])cc1)c1ccccc1` (configuration not stated) showed an IC50 of over 20 µM. For the same compound, the IC50 (read-out: pIC50 (converted)) is over 20 µM.

In the case of `c1ccc([C@@H]2CN=C3NCCN32)cc1`, the IC50 is over 20 µM. Moreover, the IC50 (read-out: pIC50 (converted)) was over 20 µM.

`O=C(CCCN1CC=C(n2c(=O)[nH]c3ccccc32)CC1)c1ccc(F)cc1` [DROPERIDOL] registered an IC50 of over 20 µM. In addition, the IC50 (read-out: pIC50 (converted)) was over 20 µM.

`CCNC(=O)/C=C/c1cccc(Br)c1` [CINROMIDE] returned an IC50 of over 20 µM. Besides, the IC50 (read-out: pIC50 (converted)) was over 20 µM.

For the compound `CCCCC(C)(O)C/C=C/[C@H]1[C@H](O)CC(=O)[C@@H]1CCCCCCC(=O)OC` (some centres not stated) [MISOPROSTOL], the IC50 was over 20 µM. In addition, for the setting “read-out: pIC50 (converted)”, the IC50 was over 20 µM.

Turning to `CCOC(=O)C1OC1C(=O)NC(CC(C)C)C(=O)N1CCN(Cc2ccc(OC)c(OC)c2OC)CC1` (configuration not stated), the IC50 is over 20 µM. In addition, the IC50 (read-out: pIC50 (converted)) was over 20 µM.

For the compound `COc1cc(C(=O)O)ccc1NC(=O)[C@@H]1N[C@@H](CC(C)(C)C)[C@](C#N)(c2ccc(Cl)cc2F)[C@H]1c1cccc(Cl)c1F` [IDASANUTLIN], the IC50 is over 20 µM. Besides, where the note is “read-out: pIC50 (converted)”, the IC50 is over 20 µM.

For `CC(C)=CC1C(CO)C1(C)C` (configuration not stated) [CHRYSANTHEMYL ALCOHOL], the IC50 was over 20 µM. Under “read-out: pIC50 (converted)”, the IC50 was over 20 µM.

`N[C@@H](C(=O)N[C@@H]1C(=O)N2C(C(=O)O)=C(Cl)CC[C@H]12)c1ccccc1` [LORACARBEF ANHYDROUS] had an IC50 of over 20 µM. The IC50 (read-out: pIC50 (converted)) is over 20 µM.
